Test results published in US11369602B2, “Use of tadalafil as protein arginine methyltransferase (PRMT5) inhibitor” (Fourth Mil. Med. Univ. of People's Lib. Army, priority 2019, dated 2022).
Values belong to the compound of their own block, whether it stands above or below them.

Columns and labels:
tumor = experiment: Later functional experiment (tumor inhibitory effect)
[1] = biological target: T1, PRMT5 (PRMT5/MEP50 purified protein) (Homo sapiens, UniProt O14744); experiment: SPR affinity analysis (Biacore T200); type: binding
T1 construct: purchased abcam ab198151
T1 sequence (O14744 whole entry): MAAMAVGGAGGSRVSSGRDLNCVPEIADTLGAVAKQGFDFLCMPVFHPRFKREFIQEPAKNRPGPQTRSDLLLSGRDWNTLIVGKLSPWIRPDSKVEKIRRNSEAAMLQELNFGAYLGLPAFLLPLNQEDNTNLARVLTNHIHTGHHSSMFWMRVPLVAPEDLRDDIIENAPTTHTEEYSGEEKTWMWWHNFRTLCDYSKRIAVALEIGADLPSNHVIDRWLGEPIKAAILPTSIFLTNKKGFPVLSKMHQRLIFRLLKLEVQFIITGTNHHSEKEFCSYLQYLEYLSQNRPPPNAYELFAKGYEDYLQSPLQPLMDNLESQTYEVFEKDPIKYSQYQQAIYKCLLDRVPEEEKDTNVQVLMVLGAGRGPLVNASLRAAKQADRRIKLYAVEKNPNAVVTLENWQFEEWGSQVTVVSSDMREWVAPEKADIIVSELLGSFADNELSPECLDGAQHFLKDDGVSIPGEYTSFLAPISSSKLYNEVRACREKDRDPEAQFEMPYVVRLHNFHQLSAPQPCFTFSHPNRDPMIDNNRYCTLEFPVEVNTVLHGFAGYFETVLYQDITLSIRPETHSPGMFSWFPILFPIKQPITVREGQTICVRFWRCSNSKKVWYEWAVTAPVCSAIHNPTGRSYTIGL
T1 sequence (Q9BQA1 whole entry partner): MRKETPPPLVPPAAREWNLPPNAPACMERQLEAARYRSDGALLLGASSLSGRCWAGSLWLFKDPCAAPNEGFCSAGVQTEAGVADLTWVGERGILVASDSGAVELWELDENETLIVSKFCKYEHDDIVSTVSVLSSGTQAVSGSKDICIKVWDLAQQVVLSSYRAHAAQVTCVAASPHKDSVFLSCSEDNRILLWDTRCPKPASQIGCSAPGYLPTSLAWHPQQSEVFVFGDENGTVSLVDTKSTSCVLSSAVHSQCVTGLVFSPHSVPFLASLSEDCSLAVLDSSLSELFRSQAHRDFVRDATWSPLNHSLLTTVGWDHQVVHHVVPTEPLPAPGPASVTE
Description: Analysis of affinity of Tadalafil for target protein (PRMT5) was carried out using Biacore T200 analysis platform and SPR technology. Tadalafil was obtained from MCE corporation with catalog no: HY-9 0009A (50 mg). PRMT5/MEP50 purified protein was obtained from abcam corporation with catalog no: ab198151 (20 μg). Tadalafil was diluted to a series of concentrations in sequence of: 0.78, 1.56, 3.125, 6.25, 12.5, 25, 50 and 100 (μM).

MDA-MB-231 tumor = experiment: MDA-MB-231 xenograft tumor growth in immunodeficient mice; type: in vivo; details: Tadalafil oral gavage 2 mg/kg once a day; Doxorubicin tail vein 2 mg/kg once a week; 25 days (FIG. 6)
Description: Immunodeficient mice were seeded with MDA-MB-231 cells respectively. When tumor volumes reached 50-100 mm3, mice were given treatment selected from the following: PBS (Control, Ctrl), Tadalafil, Doxorubicin (DOX), Tadalafil in combination with Doxorubicin (DOX+Tadalafil). Tadalafil was administered by oral gavage (2 mg/kg, once a day) while Doxorubicin was administered by mouse tail vein injection (2 mg/kg, once a week). Body weights of mice and tumor volumes were measured every day for 25 days.

- binding ability to PRMT5 ([1]; SPR experiment): lower binding ability to PRMT5
SMILES: O=C(O)c1cc(/N=N/c2ccc(S(=O)(=O)Nc3ccccn3)cc2)ccc1O [Sulfasalazine]
- tumor inhibitory effect (tumor): relatively weak tumor inhibitory effect

- Kd ([1]; SPR, Biacore T200, Tadalafil 0.78-100 μM): 22.7 ± 9.6 µM
SMILES: CN1CC(=O)N2[C@H](c3ccc4c(c3)OCO4)c3[nH]c4ccccc4c3C[C@@H]2C1=O [Tadalafil]

SMILES: COc1cccc2c1C(=O)c1c(O)c3c(c(O)c1C2=O)C[C@@](O)(C(=O)CO)C[C@@H]3O[C@H]1C[C@H](N)[C@H](O)[C@H](C)O1 [Doxorubicin]
- mouse tumor volume / tumor growth (MDA-MB-231 tumor): inhibited tumor growth
